Each structure is given as a SMILES string. Values joined by “and” are separate entries in the source; they are usually repeats but may differ in a detail not shown here. Equal entries are not always repeated. Inconclusive results and toxic doses are left out.

For this assay, the system named is B6C3F1 mice, Lewis lung carcinoma iv, survival T/C. The assay is described as follows: NCI In Vivo Anticancer Drug Screen. Data for tumor model Lewis Lung Carcinoma (intravenous) in B6C3F1 mice. The note with it: endpoint: median survival time, schedule: Q01DX009 (ip), higher = longer survival. The procedure, abridged: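 Tumors were transplanted into mice, which were then dosed with compound or vehicle. Survival was recorded in each group, and the treated figure was divided by the control figure.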

[1] abbreviates: dose: 12.5 mg/kg/injection, vehicle: saline.
Where [2] appears, read: dose: 25.0 mg/kg/injection, vehicle: saline.
Where [3] appears, read: dose: 50.0 mg/kg/injection, vehicle: saline.
Setting [4] is: dose: 100.0 mg/kg/injection, vehicle: saline.
Where [5] appears, read: dose: 200.0 mg/kg/injection, vehicle: saline.
The mark [6] stands for this setting: dose: 3.12 mg/kg/injection, vehicle: Klucel (hydroxypropylcellulose) (HPC).
[7] abbreviates: dose: 12.5 mg/kg/injection, vehicle: Klucel (hydroxypropylcellulose) (HPC).
[8] abbreviates: dose: 25.0 mg/kg/injection, vehicle: Klucel (hydroxypropylcellulose) (HPC).
[9] abbreviates: dose: 12.5 mg/kg/injection, vehicle: saline with Tween-80.
Where [10] appears, read: dose: 25.0 mg/kg/injection, vehicle: saline with Tween-80.
Setting [11] is: dose: 50.0 mg/kg/injection, vehicle: saline with Tween-80.
Setting [12] is: dose: 100.0 mg/kg/injection, vehicle: saline with Tween-80.
[13] abbreviates: dose: 200.0 mg/kg/injection, vehicle: saline with Tween-80.
The mark [14] stands for this setting: dose: 6.25 mg/kg/injection, vehicle: Klucel (hydroxypropylcellulose) (HPC).
The mark [15] stands for this setting: dose: 3.12 mg/kg/injection, vehicle: saline.

Regarding `CC(=O)OCC1OC(n2ccc(N)nc2=O)C(OC(C)=O)C1OC(C)=O` (configuration not stated), the T/C reads like this: under setting [1], 92 % of control; under setting [2], 100 % of control; under setting [3], 101 % of control; under setting [4], 115 % of control; under setting [5], 115 % of control.
Regarding `O=NN(CCF)C(=O)NC1CCCCC1`, the T/C (dose: 2.5 mg/kg/injection, vehicle: saline with Tween-80) is 109 % of control; the T/C under setting [6] was 107 % of control; the T/C (dose: 5.0 mg/kg/injection, vehicle: saline with Tween-80) is 109 % of control; the T/C (dose: 10.0 mg/kg/injection, vehicle: saline with Tween-80) is 155 % of control; the T/C under setting [7] is 269 % of control and 291 % of control; the T/C (dose: 20.0 mg/kg/injection, vehicle: saline with Tween-80) was 229 % of control. In addition, the T/C under setting [8] is 227 % of control.
On to `NC(=O)NO`, for which the T/C by setting is: under setting [3], 94 % of control; under setting [4], 98 % of control; under setting [5], 96 % of control.
Take `CCCCOCN(COCCCC)C12CC3CC(CC(C3)C1)C2`: the T/C under setting [9] is 101 % of control; the T/C under setting [10] is 111 % of control; the T/C under setting [11] was 97 % of control; the T/C under setting [12] is 106 % of control; the T/C under setting [13] was 100 % of control.
As for `COC(=O)c1ccoc1`, the T/C runs as follows: under setting [1], 100 % of control; under setting [2], 111 % of control; under setting [3], 97 % of control; under setting [4], 108 % of control; under setting [5], 117 % of control.
Consider `COc1cccc2c1C(=O)c1c(O)c3c(c(O)c1C2=O)C[C@@](O)(C(=O)CO)C[C@@H]3OC1CC(N)C(O)C(C)O1` (some centres not stated), for which the T/C (dose: 0.12 mg/kg/injection, vehicle: saline) was 94 % of control and 96 % of control and 98 % of control; the T/C (dose: 0.13 mg/kg/injection, vehicle: saline) is 102 % of control; the T/C (dose: 0.5 mg/kg/injection, vehicle: water) was 95 % of control and 100 % of control; the T/C (dose: 1.0 mg/kg/injection, vehicle: water) is 88 % of control; the T/C (dose: 2.0 mg/kg/injection, vehicle: water) is 90 % of control and 123 % of control; the T/C (dose: 4.0 mg/kg/injection, vehicle: water) is 112 % of control.
As to `CCCCCC[Se][Se]CCCCCC`, the T/C is 97 % of control (dose: 1.56 mg/kg/injection, vehicle: Klucel (hydroxypropylcellulose) (HPC)); 105 % of control under setting [6]; 100 % of control under setting [14]; 95 % of control under setting [7].
`N#CCCSC(=S)C1CCCC1=N` (configuration not stated): the T/C is, setting by setting: under setting [9], 99 % of control; under setting [10], 103 % of control; under setting [11], 98 % of control; under setting [12], 103 % of control; under setting [13], 105 % of control; (dose: 400.0 mg/kg/injection, vehicle: saline with Tween-80) 106 % of control.
Regarding `NC(=S)N/N=C\c1ncccc1OCc1cccc(N)c1`, the T/C reads like this: (dose: 12.5 mg/kg/injection, vehicle: distilled water + Tween-80) 103 % of control; (dose: 25.0 mg/kg/injection, vehicle: distilled water + Tween-80) 109 % of control; (dose: 50.0 mg/kg/injection, vehicle: distilled water + Tween-80) 109 % of control; (dose: 100.0 mg/kg/injection, vehicle: distilled water + Tween-80) 102 % of control; (dose: 200.0 mg/kg/injection, vehicle: distilled water + Tween-80) 121 % of control.
With `CN(C)N=Nc1cccc(C(N)=O)c1`, the T/C (dose: 10.0 mg/kg/injection, vehicle: Klucel (hydroxypropylcellulose) (HPC)) is 114 % of control and the T/C (dose: 20.0 mg/kg/injection, vehicle: Klucel (hydroxypropylcellulose) (HPC)) is 115 % of control.
As for `c1ccc(P(CCNCCP(c2ccccc2)c2ccccc2)c2ccccc2)cc1`, the T/C under setting [10] is 104 % of control and the T/C under setting [11] was 97 % of control.
`NC(CSC(c1ccccc1)(c1ccccc1)c1ccccc1)C(=O)O` (configuration not stated): the T/C runs as follows: under setting [6], 116 % of control; under setting [14], 96 % of control; under setting [7], 111 % of control; under setting [8], 102 % of control; (dose: 50.0 mg/kg/injection, vehicle: Klucel (hydroxypropylcellulose) (HPC)) 107 % of control.
As to `O=c1[nH]cccc1O`, the T/C runs as follows: (dose: 16.0 mg/kg/injection, vehicle: saline with Tween-80) 98 % of control; (dose: 32.0 mg/kg/injection, vehicle: saline with Tween-80) 94 % of control; (dose: 64.0 mg/kg/injection, vehicle: saline with Tween-80) 103 % of control; (dose: 256.0 mg/kg/injection, vehicle: saline with Tween-80) 101 % of control.
For `C=CCOCC1CO1` (configuration not stated), the T/C by setting is: under setting [1], 105 % of control; under setting [2], 100 % of control; under setting [3], 99 % of control; under setting [4], 104 % of control; under setting [5], 115 % of control.
Regarding `OCCN1CCN(CC/C=C2/c3ccccc3Sc3ccc(Cl)cc32)CC1`, the T/C is 99 % of control (dose: 1.56 mg/kg/injection, vehicle: saline); 103 % of control under setting [15]; 98 % of control (dose: 6.25 mg/kg/injection, vehicle: saline); 103 % of control under setting [1]; 110 % of control under setting [2].
In the case of `Cc1cc(NCCCN(C)C)c2ccc3c(ccc4c(NCCCN(C)C)cc(C)nc43)c2n1`, the T/C reads like this: (dose: 0.19 mg/kg/injection, vehicle: saline with Tween-80) 101 % of control; (dose: 0.39 mg/kg/injection, vehicle: saline with Tween-80) 109 % of control; (dose: 0.78 mg/kg/injection, vehicle: saline with Tween-80) 100 % of control; (dose: 1.56 mg/kg/injection, vehicle: saline with Tween-80) 95 % of control; (dose: 3.12 mg/kg/injection, vehicle: saline with Tween-80) 100 % of control; under setting [15], 109 % of control.
Turning to `CCOC(=O)CNC(=O)CCCCSc1ncnc2nc[nH]c12`, the T/C reads like this: (dose: 40.0 mg/kg/injection, vehicle: Klucel (hydroxypropylcellulose) (HPC)) 101 % of control; (dose: 80.0 mg/kg/injection, vehicle: Klucel (hydroxypropylcellulose) (HPC)) 112 % of control; (dose: 160.0 mg/kg/injection, vehicle: Klucel (hydroxypropylcellulose) (HPC)) 110 % of control; (dose: 320.0 mg/kg/injection, vehicle: Klucel (hydroxypropylcellulose) (HPC)) 95 % of control; (dose: 640.0 mg/kg/injection, vehicle: Klucel (hydroxypropylcellulose) (HPC)) 111 % of control.
With `c1ccc([P+](c2ccccc2)(c2ccccc2)c2ccccc2)cc1`, the T/C is 112 % of control (dose: 0.09 mg/kg/injection, vehicle: saline); 112 % of control (dose: 0.18 mg/kg/injection, vehicle: saline); 107 % of control (dose: 0.37 mg/kg/injection, vehicle: saline); 105 % of control and 112 % of control (dose: 0.75 mg/kg/injection, vehicle: saline); 103 % of control and 111 % of control (dose: 1.5 mg/kg/injection, vehicle: saline); 95 % of control and 124 % of control (dose: 3.0 mg/kg/injection, vehicle: saline). Besides, the T/C (dose: 6.0 mg/kg/injection, vehicle: saline) was 94 % of control.

The record behind these values is PubChem BioAssay AID276 (DTP/NCI, 2004).
